Experimental data published in the supplement of paper PMC11208160.
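Also: IS621 bridge recombinase in Escherichia coli cells against a fixed T5 target plasmid.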

Test: recombinant UMI read abundance after kanamycin selection (control-corrected) (log10(CPM+1)); higher = more efficient recombination; extreme values may be limits of the assay; sequences stand for … in AGTGCAGAGAAAATCGGCCAGTTTTCTCTGCCTGCAGTCCGCATGCCGTGGGACCCCTTGGGTTCTAACCTGTTGCCTAGATTTATGCAGCGGACTGCCTTTCTCCCAAAGTGATAAACCGG…AGGTTGGTTTCACT; site = the 11-nt donor
Summary of the method: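 In a pooled Escherichia coli screen for the IS621 bridge recombinase, donor and donor-binding-loop pairs were each placed with a 12-nt UMI on a plasmid bearing a promoterless kanamycin gene. This library was co-electroporated with a target plasmid encoding a fixed target and T7-inducible recombinase, and cells were plated either on IPTG (0.07 mM) plus kanamycin or without selection, in two replicates each. Recombinant UMIs were PCR-amplified across the donor–target junction and sequenced, and counts were converted to CPM, averaged over replicates, scaled by control-derived factors and reported as log10(CPM+1).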
In the case of “CATAGCGCATGGACCGGTTTTCCCGGTAATCCGTATTTGTC (site CATAGCGCTGA)”, the “recombinant UMI read abundance (log10)” value was 2.99.
In the case of “CATAGTCCATGGACCGGTTTTCCCGGTAATCCGTATTTGAA (site CATAGTCCTTT)”, the “recombinant UMI read abundance (log10)” value was 0.981.
With “CATCAGTCATGGACCGGTTTTCCCGGTAATCCGTATTTGGT (site CATCAGTCTAC)” the “recombinant UMI read abundance (log10)” value was 2.17.
With “CATCCATCATGGACCGGTTTTCCCGGTAATCCGTATTTGGG (site CATCCATCTCC)” the “recombinant UMI read abundance (log10)” value was 0.0148.
In the case of “CATCCCTCATGGACCGGTTTTCCCGGTAATCCGTATTTGTA (site CATCCCTCTTA)”, the “recombinant UMI read abundance (log10)” value was 3.33.
In the case of “CATCGTACATGGACCGGTTTTCCCGGTAATCCGTATTTGGT (site AGAGTGGCTTA)”, the “recombinant UMI read abundance (log10)” value was 0.00765.
In the case of “CATCTGTCATGGACCGGTTTTCCCGGTAATCCGTATTTGGG (site CATCTGTCTCC)”, the “recombinant UMI read abundance (log10)” value was 0.559.
With “CATGACTCATGGACCGGTTTTCCCGGTAATCCGTATTTGTC (site CATGACTCTGA)” the “recombinant UMI read abundance (log10)” value was 1.71.
For “CATGCACCATGGACCGGTTTTCCCGGTAATCCGTATTTGAC (site CATGCACCTGT)”, the “recombinant UMI read abundance (log10)” value was 0.
With “CATGCAGCATGGACCGGTTTTCCCGGTAATCCGTATTTGCT (site CAAGCAGCTAG)” the “recombinant UMI read abundance (log10)” value was 0.856.
For “CATGCAGCATGGACCGGTTTTCCCGGTAATCCGTATTTGCT (site CACGCAGCTAG)”, the “recombinant UMI read abundance (log10)” value was 1.29.
For “CATGCAGCATGGACCGGTTTTCCCGGTAATCCGTATTTGCT (site CAGGCAGCTAG)”, the “recombinant UMI read abundance (log10)” value was 0.00853.
For “CATGCAGCATGGACCGGTTTTCCCGGTAATCCGTATTTGCT (site CATGCAGCTAG)”, the “recombinant UMI read abundance (log10)” value was 1.97.
For “CATGCATCATGGACCGGTTTTCCCGGTAATCCGTATTTGCT (site CATGCATCTAG)”, the “recombinant UMI read abundance (log10)” value was 1.49.
For “CATGGATCATGGACCGGTTTTCCCGGTAATCCGTATTTGGA (site CATGGATCTTC)”, the “recombinant UMI read abundance (log10)” value was 2.32.
In the case of “CATGTGACATGGACCGGTTTTCCCGGTAATCCGTATTTGAT (site CATGTGACTAT)”, the “recombinant UMI read abundance (log10)” value was 2.03.
For “CATTATCCATGGACCGGTTTTCCCGGTAATCCGTATTTGCT (site AATTATCCTAG)”, the “recombinant UMI read abundance (log10)” value was 0.352.
With “CATTATCCATGGACCGGTTTTCCCGGTAATCCGTATTTGCT (site CATTATCCTAG)” the “recombinant UMI read abundance (log10)” value was 1.59.
With “CATTATCCATGGACCGGTTTTCCCGGTAATCCGTATTTGCT (site GATTATCCTAG)” the “recombinant UMI read abundance (log10)” value was 0.
In the case of “CATTATCCATGGACCGGTTTTCCCGGTAATCCGTATTTGCT (site TATTATCCTAG)”, the “recombinant UMI read abundance (log10)” value was 0.
In the case of “CATTCGCCATGGACCGGTTTTCCCGGTAATCCGTATTTGAA (site CATTCGCCTTT)”, the “recombinant UMI read abundance (log10)” value was 0.0116.
In the case of “CATTCGTCATGGACCGGTTTTCCCGGTAATCCGTATTTGGC (site CATTCGTCTGC)”, the “recombinant UMI read abundance (log10)” value was 0.595.
In the case of “CATTGAACATGGACCGGTTTTCCCGGTAATCCGTATTTGCC (site CATTGAACTGG)”, the “recombinant UMI read abundance (log10)” value was 0.
For “CATTGGACATGGACCGGTTTTCCCGGTAATCCGTATTTGAC (site AATTGGACTGT)”, the “recombinant UMI read abundance (log10)” value was 0.565.
In the case of “CATTGGACATGGACCGGTTTTCCCGGTAATCCGTATTTGAC (site CATTGGACTGT)”, the “recombinant UMI read abundance (log10)” value was 1.96.
In the case of “CATTGGACATGGACCGGTTTTCCCGGTAATCCGTATTTGAC (site GATTGGACTGT)”, the “recombinant UMI read abundance (log10)” value was 0.
For “CATTGGACATGGACCGGTTTTCCCGGTAATCCGTATTTGAC (site TATTGGACTGT)”, the “recombinant UMI read abundance (log10)” value was 0.
For “CCAAAACCATGGACCGGTTTTCCCGGTAATCCGTATTTGAG (site CCAAAACCTCT)”, the “recombinant UMI read abundance (log10)” value was 0.
In the case of “CCAACTTCATGGACCGGTTTTCCCGGTAATCCGTATTTGTA (site CCAACTTCTTA)”, the “recombinant UMI read abundance (log10)” value was 0.301.
With “CCAAGCGCATGGACCGGTTTTCCCGGTAATCCGTATTTGTA (site CCAAGCGCTTA)” the “recombinant UMI read abundance (log10)” value was 1.3.
In the case of “CCAATCACATGGACCGGTTTTCCCGGTAATCCGTATTTGTT (site CCAATCACTAA)”, the “recombinant UMI read abundance (log10)” value was 0.84.
With “CCACGAACATGGACCGGTTTTCCCGGTAATCCGTATTTGTC (site ACACGAACTGA)” the “recombinant UMI read abundance (log10)” value was 0.
For “CCACGAACATGGACCGGTTTTCCCGGTAATCCGTATTTGTC (site CCACGAACTGA)”, the “recombinant UMI read abundance (log10)” value was 0.774.
With “CCACGAACATGGACCGGTTTTCCCGGTAATCCGTATTTGTC (site GCACGAACTGA)” the “recombinant UMI read abundance (log10)” value was 0.
For “CCACGAACATGGACCGGTTTTCCCGGTAATCCGTATTTGTC (site TCACGAACTGA)”, the “recombinant UMI read abundance (log10)” value was 0.
With “CCAGCAGCATGGACCGGTTTTCCCGGTAATCCGTATTTGTC (site CCAGCAGCTGA)” the “recombinant UMI read abundance (log10)” value was 0.4.
With “CCAGCATCATGGACCGGTTTTCCCGGTAATCCGTATTTGCT (site CCAGCATCTAG)” the “recombinant UMI read abundance (log10)” value was 0.0975.
With “CCAGCATCATGGACCGGTTTTCCCGGTAATCCGTATTTGCT (site CGATCATCTAG)” the “recombinant UMI read abundance (log10)” value was 0.
In the case of “CCAGCTGCATGGACCGGTTTTCCCGGTAATCCGTATTTGCC (site CCAGCTGCTGG)”, the “recombinant UMI read abundance (log10)” value was 1.26.
In the case of “CCAGGACCATGGACCGGTTTTCCCGGTAATCCGTATTTGGG (site CAAGGACCTCC)”, the “recombinant UMI read abundance (log10)” value was 0.0304.
In the case of “CCAGGACCATGGACCGGTTTTCCCGGTAATCCGTATTTGGG (site CCAGGACCTCC)”, the “recombinant UMI read abundance (log10)” value was 0.00761.
For “CCAGGACCATGGACCGGTTTTCCCGGTAATCCGTATTTGGG (site CGAGGACCTCC)”, the “recombinant UMI read abundance (log10)” value was 0.
With “CCAGGACCATGGACCGGTTTTCCCGGTAATCCGTATTTGGG (site CTAGGACCTCC)” the “recombinant UMI read abundance (log10)” value was 0.00678.
In the case of “CCAGGTCCATGGACCGGTTTTCCCGGTAATCCGTATTTGCA (site CCAGGTCCTTG)”, the “recombinant UMI read abundance (log10)” value was 0.421.
In the case of “CCAGGTCCATGGACCGGTTTTCCCGGTAATCCGTATTTGCA (site CCCGGTCCTTG)”, the “recombinant UMI read abundance (log10)” value was 0.
With “CCAGGTCCATGGACCGGTTTTCCCGGTAATCCGTATTTGCA (site CCGGGTCCTTG)” the “recombinant UMI read abundance (log10)” value was 0.
With “CCAGGTCCATGGACCGGTTTTCCCGGTAATCCGTATTTGCA (site CCTGGTCCTTG)” the “recombinant UMI read abundance (log10)” value was 0.
For “CCAGGTGCATGGACCGGTTTTCCCGGTAATCCGTATTTGAG (site CCAGGTGCTAT)”, the “recombinant UMI read abundance (log10)” value was 0.721.
For “CCAGGTGCATGGACCGGTTTTCCCGGTAATCCGTATTTGAG (site CCAGGTGCTCT)”, the “recombinant UMI read abundance (log10)” value was 0.843.
In the case of “CCAGGTGCATGGACCGGTTTTCCCGGTAATCCGTATTTGAG (site CCAGGTGCTGT)”, the “recombinant UMI read abundance (log10)” value was 0.
In the case of “CCAGGTGCATGGACCGGTTTTCCCGGTAATCCGTATTTGAG (site CCAGGTGCTTT)”, the “recombinant UMI read abundance (log10)” value was 0.424.
With “CCAGGTTCATGGACCGGTTTTCCCGGTAATCCGTATTTGAT (site CCAGGTACTAT)” the “recombinant UMI read abundance (log10)” value was 0.00235.
With “CCAGGTTCATGGACCGGTTTTCCCGGTAATCCGTATTTGAT (site CCAGGTCCTAT)” the “recombinant UMI read abundance (log10)” value was 0.00776.
For “CCAGGTTCATGGACCGGTTTTCCCGGTAATCCGTATTTGAT (site CCAGGTGCTAT)”, the “recombinant UMI read abundance (log10)” value was 0.
For “CCAGGTTCATGGACCGGTTTTCCCGGTAATCCGTATTTGAT (site CCAGGTTCTAT)”, the “recombinant UMI read abundance (log10)” value was 0.602.
In the case of “CCAGGTTCATGGACCGGTTTTCCCGGTAATCCGTATTTGTC (site CCAGGTTCTGA)”, the “recombinant UMI read abundance (log10)” value was 2.24.
For “CCAGTCACATGGACCGGTTTTCCCGGTAATCCGTATTTGGG (site CAAGTCACTCC)”, the “recombinant UMI read abundance (log10)” value was 0.0155.
For “CCAGTCACATGGACCGGTTTTCCCGGTAATCCGTATTTGGG (site CCAGTCACTCC)”, the “recombinant UMI read abundance (log10)” value was 0.026.
In the case of “CCAGTCACATGGACCGGTTTTCCCGGTAATCCGTATTTGGG (site CGAGTCACTCC)”, the “recombinant UMI read abundance (log10)” value was 0.00845.
With “CCAGTCACATGGACCGGTTTTCCCGGTAATCCGTATTTGGG (site CTAGTCACTCC)” the “recombinant UMI read abundance (log10)” value was 0.0251.
In the case of “CCAGTTGCATGGACCGGTTTTCCCGGTAATCCGTATTTGAT (site CCAGATGCTAT)”, the “recombinant UMI read abundance (log10)” value was 0.00647.
For “CCAGTTGCATGGACCGGTTTTCCCGGTAATCCGTATTTGAT (site CCAGCTGCTAT)”, the “recombinant UMI read abundance (log10)” value was 0.249.
In the case of “CCAGTTGCATGGACCGGTTTTCCCGGTAATCCGTATTTGAT (site CCAGGTGCTAT)”, the “recombinant UMI read abundance (log10)” value was 0.00995.
For “CCAGTTGCATGGACCGGTTTTCCCGGTAATCCGTATTTGAT (site CCAGTTGCTAT)”, the “recombinant UMI read abundance (log10)” value was 1.42.
With “CCATAAACATGGACCGGTTTTCCCGGTAATCCGTATTTGCT (site CCATAAACTAG)” the “recombinant UMI read abundance (log10)” value was 1.06.
In the case of “CCATACCCATGGACCGGTTTTCCCGGTAATCCGTATTTGCG (site CCATACCCTCG)”, the “recombinant UMI read abundance (log10)” value was 0.287.
With “CCATACCCATGGACCGGTTTTCCCGGTAATCCGTATTTGTG (site CCATACCCTCA)” the “recombinant UMI read abundance (log10)” value was 0.00448.
For “CCATCGACATGGACCGGTTTTCCCGGTAATCCGTATTTGTT (site CAATCGACTAA)”, the “recombinant UMI read abundance (log10)” value was 0.00346.
With “CCATCGACATGGACCGGTTTTCCCGGTAATCCGTATTTGTT (site CCATCGACTAA)” the “recombinant UMI read abundance (log10)” value was 0.266.
In the case of “CCATCGACATGGACCGGTTTTCCCGGTAATCCGTATTTGTT (site CGATCGACTAA)”, the “recombinant UMI read abundance (log10)” value was 0.
With “CCATCGACATGGACCGGTTTTCCCGGTAATCCGTATTTGTT (site CTATCGACTAA)” the “recombinant UMI read abundance (log10)” value was 0.0452.
For “CCATGAGCATGGACCGGTTTTCCCGGTAATCCGTATTTGAG (site CCATGAGCTCT)”, the “recombinant UMI read abundance (log10)” value was 0.662.
In the case of “CCATGATCATGGACCGGTTTTCCCGGTAATCCGTATTTGAA (site CCATGATCTTT)”, the “recombinant UMI read abundance (log10)” value was 1.02.
For “CCATTATCATGGACCGGTTTTCCCGGTAATCCGTATTTGCT (site CCATTATCTAG)”, the “recombinant UMI read abundance (log10)” value was 1.49.
With “CCATTATCATGGACCGGTTTTCCCGGTAATCCGTATTTGCT (site CGATCATCTAG)” the “recombinant UMI read abundance (log10)” value was 0.
